Values of other authors in patent publication US10813877B2, “Oral care products and methods” (MGE HOLDINGS LLC, priority 2016, dated 2020).

Test system: cells
Details: ex vivo

In the case of `[H]/N=C(\N/C(=N/[H])NCCCCCCNC(=N)NC(=N)Nc1ccc(Cl)cc1)Nc1ccc(Cl)cc1` [chlorhexidine], the “cytotoxic effect on cells” value is given as “cytotoxic effect”.
